Source: article PMC9246096, “Structure-activity relationship studies for inhibitors for vancomycin-resistant Enterococcus and human carbonic anhydrases” (Journal of Enzyme Inhibition and Medicinal Chemistry, 2022)
≈ marks a conversion by molar mass, not a printed value. Where “and” joins values, the source holds several entries; their conditions need not be identical. Equal values may be shown once.

Molecular target: E. faecium α-CA (Efα-CA) (Enterococcus faecium, UniProt Q3XYE8)
Test: not given
Format: biochemical
Settings: compared to AZM
Procedure: (§1) Both Efα-CA and Efγ-CA were recombinantly expressed and purified as follows. A pHis2 plasmid (GenScript) containing either the Efα-CA sequence or Efγ-CA sequence was used for the expression of hexa-histidine tagged protein in a bacterial culture. […] Starter cultures were grown at 37 °C with shaking at 225 rpm overnight. One litre of autoclaved Luria-Bertani broth containing 100 µg/mL ampicillin and 1 mM ZiCl2 was inoculated with a 10-ml aliquot of the starter culture and grown at 37 °C with shaking at 225 rpm to an OD of 0.8 before being cold shocked and induced with 500 µL of IPTG (1 M). The induced cultures were grown for 16 h at 17 °C with shaking at 225 rpm. Bacterial cell pellets were spun down at 4000 g for 20 min and resuspended in 1× PBS containing 0.5 mM TCEP, 5% glycerol, pH = 7.4 to which 5 mg lysozyme was added to aid in lysis. The resuspended bacterial cells were incubated on ice for 20 min and then lysed via sonication. Lysed bacterial cells were pelleted by centrifugation at 14,000 g for 1 h to remove cellular debris, and the supernatant was loaded onto a nickel-NTA column equilibrated with 1x PBS containing 0.5 mM TCEP, 5% glycerol, pH = 7.4. Once flowthrough was collected, the protein was eluted using a 0–500 mM imidazole stepwise gradient in the same equilibration buffer, and fractions were collected. Fractions that contained the desired protein, as determined by SDS-PAGE, were combined and subjected to TEV protease for His-tag cleavage. After the addition of TEV, the protein was dialysed for 4 h against 1× PBS containing 0.5 mM TCEP, 5% glycerol, pH = 7.4. The dialysed protein solution was loaded back onto a nickel-NTA column equilibrated with 1x PBS containing 0.5 mM TCEP, 5% glycerol, pH = 7.4 for the subtraction of TEV followed by its elution with the same buffer containing 500 mM imidazole. The protein eluted prior to the imidazole was concentrated using Amicon Ultra Centrifugal Filters and purified by size-exclusion chromatography (SEC) on an S100 column using running buffer 1x PBS containing 0.5 mM TCEP, 5% glycerol, pH = 7.4. Fractions that contained the protein of interest as confirmed by SDS-PAGE were concentrated, flash frozen, and placed in −80 °C for future use.
(§2) The assay was performed according to previously published protocols. Recombinant Efα-CA and Efγ-CA was obtained as described above and hCA I and hCA II were purchased from Millipore Sigma (hCA I Catalog# C4396-5MG; hCA II Catalog #C6624-500UG). Ki values were determined from inputting the IC50 values into the Cheng–Prusoff equation[25] for Ki from catalytic inhibition constants.

Chain of E. faecium α-CA (Efα-CA) (Q3XYE8 entry or part of it): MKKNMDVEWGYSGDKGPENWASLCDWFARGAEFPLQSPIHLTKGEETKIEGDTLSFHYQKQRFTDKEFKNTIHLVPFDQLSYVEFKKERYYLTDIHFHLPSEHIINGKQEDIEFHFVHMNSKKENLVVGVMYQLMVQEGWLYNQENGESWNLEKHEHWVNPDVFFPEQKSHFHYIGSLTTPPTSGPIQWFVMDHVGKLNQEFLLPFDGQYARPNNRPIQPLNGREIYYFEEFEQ

SMILES | fold reduction in binding affinity against Efα-CA
CC(=O)Nc1ncc(S(N)(=O)=O)s1 [Cmpd 29] | 6 fold and 7 fold

Same assay, conditions: compared to matched molecular paired analog 10

SMILES | fold reduced potency against Efα-CA
NS(=O)(=O)c1nnc(NC(=O)CC2CCCC2)s1 [Cmpd 17] | about 2 fold

Same assay, conditions: read-out: Ki Efα-CA

SMILES | Ki
CC(=O)Nc1ccc(S(N)(=O)=O)cc1 [Cmpd 30] | 180 nM

Same assay, conditions: read-out: Ki Efα-CA; recombinant Efα-CA; Ki from IC50 via Cheng–Prusoff

SMILES | Ki
CCC(=O)Nc1nnc(S(N)(=O)=O)s1 [Cmpd 1] | 37.5 nM
CC(C)C(=O)Nc1nnc(S(N)(=O)=O)s1 [Cmpd 2] | 23.7 nM
CC(C)(C)C(=O)Nc1nnc(S(N)(=O)=O)s1 [Cmpd 3] | 29.8 nM
CCCC(=O)Nc1nnc(S(N)(=O)=O)s1 [Cmpd 4] | 50.1 nM
NS(=O)(=O)c1nnc(NC(=O)C2CCCCC2)s1 [Cmpd 11] | 49.3 nM
NS(=O)(=O)c1nnc(NC(=O)CC2CCCCC2)s1 [Cmpd 18] | 14.5 nM
CN1CCN(CC(=O)Nc2nnc(S(N)(=O)=O)s2)CC1 [Cmpd 25] | 81.5 nM
CCNc1nnc(S(N)(=O)=O)s1 [Cmpd 26] | 165 nM
NS(=O)(=O)c1nnc(NCC2CCCCC2)s1 [Cmpd 27] | 117 nM

Same assay, conditions: recombinant Efα-CA; Ki from IC50 via Cheng–Prusoff; read-out: Ki Efα-CA

SMILES | Ki
CC(C)CC(=O)Nc1nnc(S(N)(=O)=O)s1 [Cmpd 5] | 62.7 nM
CC(C)(C)CC(=O)Nc1nnc(S(N)(=O)=O)s1 [Cmpd 6] | 69.6 nM
CCCCCCC(=O)Nc1nnc(S(N)(=O)=O)s1 [Cmpd 7] | 78.8 nM
NS(=O)(=O)c1nnc(NC(=O)C2CC2)s1 [Cmpd 8] | 36.2 nM
NS(=O)(=O)c1nnc(NC(=O)C2CCC2)s1 [Cmpd 9] | 27.2 nM
NS(=O)(=O)c1nnc(NC(=O)C2CCCC2)s1 [Cmpd 10] | 9.8 nM
CC1(C(=O)Nc2nnc(S(N)(=O)=O)s2)CCCCC1 [Cmpd 12] | 44.5 nM
CC1CCC(C(=O)Nc2nnc(S(N)(=O)=O)s2)CC1 (stereo not shown) [Cmpd 13] | 29.6 nM
NS(=O)(=O)c1nnc(NC(=O)CC2CC2)s1 [Cmpd 15] | 11.7 nM
NS(=O)(=O)c1nnc(NC(=O)CC2CCC2)s1 [Cmpd 16] | 18.4 nM
NS(=O)(=O)c1nnc(NC(=O)CC2CCCC2)s1 [Cmpd 17] | 21.9 nM
NS(=O)(=O)c1nnc(NC(=O)CCC2CCCC2)s1 [Cmpd 19] | 39.3 nM
NS(=O)(=O)c1nnc(NC(=O)CN2CCCC2)s1 [Cmpd 22] | 38.1 nM
NS(=O)(=O)c1nnc(NC(=O)CN2CCCCC2)s1 [Cmpd 23] | 29.5 nM
NS(=O)(=O)c1nnc(NCc2ccccc2)s1 [Cmpd 28] | 163 nM
CC(=O)Nc1ncc(S(N)(=O)=O)s1 [Cmpd 29] | 375 nM

Molecular target: E. faecium γ-CA (Efγ-CA) (Enterococcus faecium, UniProt Q3XX77)
Test: biochemical
Format: biochemical
Settings: Ki Efγ-CA, recombinant Efγ-CA; Ki from IC50 via Cheng–Prusoff
Procedure: as §1, §2

Chain of E. faecium γ-CA (Efγ-CA) (Q3XX77 entry or part of it): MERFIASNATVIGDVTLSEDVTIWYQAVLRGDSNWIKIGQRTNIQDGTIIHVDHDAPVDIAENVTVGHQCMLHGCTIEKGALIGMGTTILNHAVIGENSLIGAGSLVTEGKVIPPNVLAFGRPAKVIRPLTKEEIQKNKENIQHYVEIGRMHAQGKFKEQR

SMILES | Ki
CCC(=O)Nc1nnc(S(N)(=O)=O)s1 [Cmpd 1] | 250 nM
CC(C)C(=O)Nc1nnc(S(N)(=O)=O)s1 [Cmpd 2] | 218 nM
CC(C)(C)C(=O)Nc1nnc(S(N)(=O)=O)s1 [Cmpd 3] | 441 nM
CCCC(=O)Nc1nnc(S(N)(=O)=O)s1 [Cmpd 4] | 325 nM
NS(=O)(=O)c1nnc(NC(=O)C2CCCCC2)s1 [Cmpd 11] | 131 nM
NS(=O)(=O)c1nnc(NC(=O)c2ccccc2)s1 [Cmpd 14] | 94.8 nM
NS(=O)(=O)c1nnc(NC(=O)CC2CCCCC2)s1 [Cmpd 18] | 305 nM
NS(=O)(=O)c1nnc(NC(=O)CCC2CCCCC2)s1 [Cmpd 20] | 346 nM
NS(=O)(=O)c1nnc(NC(=O)CN2CCOCC2)s1 [Cmpd 24] | 56.4 nM
CN1CCN(CC(=O)Nc2nnc(S(N)(=O)=O)s2)CC1 [Cmpd 25] | 64.7 nM
CCNc1nnc(S(N)(=O)=O)s1 [Cmpd 26] | 505 nM
NS(=O)(=O)c1nnc(NCC2CCCCC2)s1 [Cmpd 27] | 398 nM

Same assay, conditions: compared to AZM

SMILES | fold reduction in binding affinity against Efγ-CA
CC(=O)Nc1ncc(S(N)(=O)=O)s1 [Cmpd 29] | 3.5 fold

Same assay, conditions: read-out: Ki Efγ-CA

SMILES | Ki
CC(=O)Nc1ccc(S(N)(=O)=O)cc1 [Cmpd 30] | 529 nM

Same assay, conditions: recombinant Efγ-CA; Ki from IC50 via Cheng–Prusoff; read-out: Ki Efγ-CA

SMILES | Ki
CC(C)CC(=O)Nc1nnc(S(N)(=O)=O)s1 [Cmpd 5] | 279 nM
CC(C)(C)CC(=O)Nc1nnc(S(N)(=O)=O)s1 [Cmpd 6] | 389 nM
CCCCCCC(=O)Nc1nnc(S(N)(=O)=O)s1 [Cmpd 7] | 632 nM
NS(=O)(=O)c1nnc(NC(=O)C2CC2)s1 [Cmpd 8] | 193 nM
NS(=O)(=O)c1nnc(NC(=O)C2CCC2)s1 [Cmpd 9] | 286 nM
NS(=O)(=O)c1nnc(NC(=O)C2CCCC2)s1 [Cmpd 10] | 195 nM
CC1(C(=O)Nc2nnc(S(N)(=O)=O)s2)CCCCC1 [Cmpd 12] | 240 nM
CC1CCC(C(=O)Nc2nnc(S(N)(=O)=O)s2)CC1 (stereo not shown) [Cmpd 13] | 345 nM
NS(=O)(=O)c1nnc(NC(=O)CC2CC2)s1 [Cmpd 15] | 311 nM
NS(=O)(=O)c1nnc(NC(=O)CC2CCC2)s1 [Cmpd 16] | 408 nM
NS(=O)(=O)c1nnc(NC(=O)CC2CCCC2)s1 [Cmpd 17] | 233 nM
NS(=O)(=O)c1nnc(NC(=O)CCC2CCCC2)s1 [Cmpd 19] | 245 nM
NS(=O)(=O)c1nnc(NC(=O)CN2CCCC2)s1 [Cmpd 22] | 92.8 nM
NS(=O)(=O)c1nnc(NC(=O)CN2CCCCC2)s1 [Cmpd 23] | 111 nM
NS(=O)(=O)c1nnc(NCc2ccccc2)s1 [Cmpd 28] | 282 nM
CC(=O)Nc1ncc(S(N)(=O)=O)s1 [Cmpd 29] | 1130 nM

Molecular target: human CA I (hCAI)
Test: not given
Design: method as in PMID 24316122
Settings: previously reported; read-out: Ki hCA I; cited from earlier work

SMILES | Ki
CC(C)C(=O)Nc1nnc(S(N)(=O)=O)s1 [Cmpd 2] | 180 nM
CC(C)(C)C(=O)Nc1nnc(S(N)(=O)=O)s1 [Cmpd 3] | 167 nM
CC(C)CC(=O)Nc1nnc(S(N)(=O)=O)s1 [Cmpd 5] | 215 nM
CC(C)(C)CC(=O)Nc1nnc(S(N)(=O)=O)s1 [Cmpd 6] | 231 nM
CCCCCCC(=O)Nc1nnc(S(N)(=O)=O)s1 [Cmpd 7] | 328 nM
NS(=O)(=O)c1nnc(NC(=O)C2CC2)s1 [Cmpd 8] | 157 nM
NS(=O)(=O)c1nnc(NC(=O)C2CCC2)s1 [Cmpd 9] | 125 nM
NS(=O)(=O)c1nnc(NC(=O)C2CCCC2)s1 [Cmpd 10] | 76.5 nM
NS(=O)(=O)c1nnc(NC(=O)C2CCCCC2)s1 [Cmpd 11] | 63.3 nM
CC1(C(=O)Nc2nnc(S(N)(=O)=O)s2)CCCCC1 [Cmpd 12] | 117 nM
CC1CCC(C(=O)Nc2nnc(S(N)(=O)=O)s2)CC1 (stereo not shown) [Cmpd 13] | 152 nM
NS(=O)(=O)c1nnc(NC(=O)c2ccccc2)s1 [Cmpd 14] | 109 nM
NS(=O)(=O)c1nnc(NC(=O)CC2CC2)s1 [Cmpd 15] | 372 nM
NS(=O)(=O)c1nnc(NC(=O)CC2CCC2)s1 [Cmpd 16] | 77.8 nM
NS(=O)(=O)c1nnc(NC(=O)CC2CCCC2)s1 [Cmpd 17] | 86.3 nM
NS(=O)(=O)c1nnc(NC(=O)CC2CCCCC2)s1 [Cmpd 18] | 58.7 nM
NS(=O)(=O)c1nnc(NC(=O)CCC2CCCC2)s1 [Cmpd 19] | 190 nM
NS(=O)(=O)c1nnc(NC(=O)CCC2CCCCC2)s1 [Cmpd 20] | 946 nM
NS(=O)(=O)c1nnc(NC(=O)CCc2ccccc2)s1 [Cmpd 21] | 855 nM
NS(=O)(=O)c1nnc(NC(=O)CN2CCCC2)s1 [Cmpd 22] | 64.7 nM
NS(=O)(=O)c1nnc(NC(=O)CN2CCCCC2)s1 [Cmpd 23] | 53.4 nM
CCNc1nnc(S(N)(=O)=O)s1 [Cmpd 26] | 701 nM
NS(=O)(=O)c1nnc(NCC2CCCCC2)s1 [Cmpd 27] | 1140 nM
NS(=O)(=O)c1nnc(NCc2ccccc2)s1 [Cmpd 28] | 1620 nM
CC(=O)Nc1ncc(S(N)(=O)=O)s1 [Cmpd 29] | 465 nM
CC(=O)Nc1ccc(S(N)(=O)=O)cc1 [Cmpd 30] | 1330 nM

Molecular target: human CA II (hCAII)
Test: not given
Design: method as in PMID 24316122
Settings: previously reported; read-out: Ki hCA II; cited from earlier work

SMILES | Ki
CC(C)CC(=O)Nc1nnc(S(N)(=O)=O)s1 [Cmpd 5] | 55.6 nM
CC(C)(C)CC(=O)Nc1nnc(S(N)(=O)=O)s1 [Cmpd 6] | 7.3 nM
CCCCCCC(=O)Nc1nnc(S(N)(=O)=O)s1 [Cmpd 7] | 22.7 nM
NS(=O)(=O)c1nnc(NC(=O)C2CC2)s1 [Cmpd 8] | 24.6 nM
NS(=O)(=O)c1nnc(NC(=O)C2CCC2)s1 [Cmpd 9] | 41.5 nM
NS(=O)(=O)c1nnc(NC(=O)C2CCCC2)s1 [Cmpd 10] | 26.2 nM
CC1(C(=O)Nc2nnc(S(N)(=O)=O)s2)CCCCC1 [Cmpd 12] | 47.7 nM
CC1CCC(C(=O)Nc2nnc(S(N)(=O)=O)s2)CC1 (stereo not shown) [Cmpd 13] | 26 nM
NS(=O)(=O)c1nnc(NC(=O)CC2CC2)s1 [Cmpd 15] | 7.6 nM
NS(=O)(=O)c1nnc(NC(=O)CC2CCC2)s1 [Cmpd 16] | 4.9 nM
NS(=O)(=O)c1nnc(NC(=O)CC2CCCC2)s1 [Cmpd 17] | 19.4 nM
NS(=O)(=O)c1nnc(NC(=O)CCC2CCCC2)s1 [Cmpd 19] | 10.2 nM
NS(=O)(=O)c1nnc(NC(=O)CN2CCCC2)s1 [Cmpd 22] | 58.1 nM
NS(=O)(=O)c1nnc(NC(=O)CN2CCCCC2)s1 [Cmpd 23] | 20.9 nM
CC(=O)Nc1ncc(S(N)(=O)=O)s1 [Cmpd 29] | 97.2 nM
CC(=O)Nc1ccc(S(N)(=O)=O)cc1 [Cmpd 30] | 67.7 nM

Tested on: VRE strains
Test: not given
Settings: full data set published by Kaur et al.; cited from earlier work

SMILES | MIC
CC(C)(C)CC(=O)Nc1nnc(S(N)(=O)=O)s1 [Cmpd 6] | 0.015 µg/mL (≈ 0.0539 µM)
CCCCCCC(=O)Nc1nnc(S(N)(=O)=O)s1 [Cmpd 7] | 0.015 µg/mL (≈ 0.0513 µM)
NS(=O)(=O)c1nnc(NC(=O)CCC2CCCCC2)s1 [Cmpd 20] | 0.007 µg/mL (≈ 0.022 µM)
